# According to patent US20050222036A1, “Peptide compositions with effects on blood glucose” (priority 2000, published 2005):
# Marks after values point to notes of the source that are not given here.
# Assays:
# rats [1] = assay: Passive avoidance (PA), associative learning in rats; assay type: in vivo, rat
# Experimental: Passive avoidance was performed in an apparatus (MED Associates Inc., St. Albans, Vt.) consisting of one dark chamber and one light chamber that can be divided by a guillotine door. The training procedure was executed as previously described (N. Venable et al. Psychopharmacology 100, 215 (1990)). Rats were administered a 1.0 mA shock for 3 sec, mice a 0.5 mA shock for 5 sec. Retention tests were performed either at 1, 3 or 7 days post-pairing. Maximum latency was 600 sec for rats, 300 sec for mice.
# In the instant invention, rats were pretreated intranasally with one of three dose levels (10 μg/kg, 30 μg/kg, or 60 μg/kg) of Gilatide in 5% β cyclodextrin or an octamer having a sequence homology to CRH and urocortin. […] A control group received vehicle (5% cyclodextrin) alone. With three dose levels for each of the peptides studied, a total of seven (7) groups were employed, each group having 5-8 rats, for a total of 50 rats tested. On the first day of conditioning, the pretreated rats (N=7-13) were administered a single foot shock trial (0.1 mA over 3 seconds) after entering the dark compartment. The animals were replaced in the test apparatus and latencies again were measured on Days 1, 3, 7, and 21 following the aversive stimulus.
# Rats were pretreated with either […] 10 μg/kg Gilatide in 5% β cyclodextrin or vehicle by one of three routes of administration: intranasally, subcutaneously, or intraperitoneally. On Day 0, the rats (N=7-13) were conditioned by administration of a single foot shock trial (0.1 mA over 3 seconds) after entry into the dark compartment of a passive avoidance apparatus (the same passive avoidance chamber used in the first series of experiments). At 24 hours (Day 1) following the initial test, and delivery of the single shock, the animals were replaced in the test apparatus and latency again measured. (FIG. 7)
# Rates (N=5-10) were pretreated intranasally with one of five dose levels (0.1 μg/kg, 1 μg/kg, 3 μg/kg, 30 μg/kg or 60 μg/kg) of Gilatide in 5% β cyclodextrin, vehicle (5% cyclodextrin), or Nicotine (0.3 mg/kg, subcutaneously). On Day 0, the rats were conditioned by administration of a single foot shock trial (0.1 mA over 3 seconds) after entry into the dark compartment of a passive avoidance apparatus (the same passive avoidance chamber used in the other experiments). The preconditioned rats were retested on Days 1, 3, 7, and 21.
# The effect of Gilatide was tested on memory consolidation by administering the peptide after shock testing. Rats (N=7-13) were preconditioned by administering a single foot shock trial (0.1 mA over 3 seconds) after entering the dark compartment of a passive avoidance apparatus. Twenty (20) minutes after the conditioning session, one group of rats was administered 10 μg/kg of Gilatide intranasally (TRN-TXT). Another group of rats (TXT-DLY-TRN) was administered this same dose of Gilatide 24 hours after the conditioning session. Both treatment groups were returned to the test apparatus 24 hours following treatment and latencies were again measured. […] (FIG. 13)
# The effects of Gilatide when used with or without an Exendin-4 antagonist were observed and measured. Rats (N=6-13) were pretreated with either 10 μg/kg or 20 μg/kg of Gilatide with or without an Exendin-4 antagonist (10 μg/kg). A control group was administered vehicle alone. The pretreated rats were conditioned on Day 0 by administration of a single foot shock trial (0.1 mA over 3 seconds) after entry into the dark compartment of a passive avoidance apparatus (the same passive avoidance chamber used in the other experiments). The preconditioned rats were retested on 24 hours later. […] (FIG. 14)
# Twenty-four hours later the rats were returned to the apparatus and retested. […] (FIG. 15)
# rats [2] = assay: Morris Water Maze (MWM), spatial learning in rats; assay type: in vivo, rat; conditions: for acquisition of spatial learning: intranasal (arecoline s.c.), four trials
# Experimental: Spatial learning was assessed using the Morris Water Maze (Morris et al. Nature, 1982, 297: 681). Information was relayed via a tracker (HSV Image, Hampton, UK) to a personal computer, which was quantified by a specialized computer program (Water 2020, Hampton, UK). The acquisition study was performed as described previously. Animals were anaesthetized with isofluorane then administered peptide intra-nasally 20 min before testing. Rats were given four training trials. 48 h after training, a retention test was performed: rats were allowed to find the hidden platform for one trial. Mice initially had six trials without treatment to habituate them to the procedure. The following day, they were administered vehicle or [Ser(2)]exendin(1-9) (SEQ ID NO:1) and trained for an additional four trials with the platform in a new location. For a retention test, mice were given one trial to locate the platform the next day. Latency to find the platform was considered a measure of retention of spatial learning.
# (§1) The elevated plus maze consists of two open and two closed arms; time spent and the number of entries into open arms are indicators of neophobic anxiety in rats. The number of entries and total time spent in the open arms were tabulated over 5 min by an observer blind to the experimental condition. Animals falling off the apparatus were eliminated from the study. For the intracerebroventricular (i.c.v.) studies, rats were implanted with a cannula (22 gauge, Plastics One, Roanoke, Va.) into the left ventricle (AP 0.8 mm, ML 1.6 mm, DV 3.5 mm from dura) then allowed at least 3-4 days to recover. The peptides were infused in a total volume of 2 μl (1 μl min −1) 25 min before training with two trials per day for 5 days. The visual platform test was conducted after the last training trial on day 5 in a different location of the pool.
# In another series of experiments, rats (N=15-16) were pretreated with either Gilatide (10 μg/kg, 30 μg/kg, or 60 μg/kg) or vehicle and then trained for four trials in a Morris Water Maze. Two days following training, the rats were retested. Latency to find a submerged platform in the Morris Water Maze paradigm was measured.
# Clinically approved treatments for cognitive impairment act primarily on the cholinergic system. The effects of intranasal GLP-1 and [Ser(2)]exendin(1-9) were compared with that of the cholinergic agonist arecoline on spatial learning in a modified version of the MWM (Setlow, B. et al. Learn. Mem, 2000. 7: 187). Rats were first administered vehicle, [Ser(2)]exendin(1-9), GLP-1 or arecoline, and trained for four trials to locate a submerged platform. They were then tested in a single retention trial 48 hours after initial training. There were no differences between treatments in acquisition (FIG. 10A).
# rats [3] = assay: Contextual fear conditioning in rats; assay type: in vivo, rat; conditions: vs naïve and EGFP controls
# Experimental: Fear conditioning was performed in a modified apparatus (MED Associates Inc., St. Albans, Vt.) housed in a sound attenuated cubicle. […] The animal was placed in the chamber and the occurrence of freezing behavior measured every 10 sec for 2 min before a shock was administered (rats, […], 2 sec; mice, 0.5 mA, 5 sec). Freezing behavior was measured again (for 5 min) the next day. The apparatus was cleaned with 1% acetic acid following conditioning of each animal.
# To determine whether increasing GLP-1R levels in the hippocampus would enhance learning, rAAV vectors expressing control EGFP vector and GLP-1R were generated and injected into the hippocampus of rats. See Example 1(vi) for protocol. Three weeks following vector injection, robust hippocampal expression was obtained (data not shown) with transgene mRNA expression in the principal cell groups of the hippocampus. […] See Example 1 (vii) for protocol. A separate group of rats treated in the same manner was trained twice daily for 5 days in the MWM. […] The decrease in latency was not due to increased swimming speed (both GLP-1R and EGFP controls were approx. 23 cm/sec) nor stress effects (Table 4). Furthmore, the decreased latency was not due to a disruption in visual acuity and general locomotion and swimming ability, because rats from both groups located a visual platform in a similar manner (approx. 32±3 sec latency). […]
# [4] = Blood glucose in fasting rats; assay type: in vivo, rat; conditions: 24 hour fasting rats, 100 ug intraperitoneal; for Blood glucose mean ± s.e.m.: 20 minutes after administration
# Experimental: Gilatide administered intraperitoneally (IP), but not intranasally (IN), lowers blood glucose levels in rats fasted for 24 hours. […] Gilatide's effect on blood glucose in fasting rats was measured. Groups of 24 hour fasting rats (n=5 or 6) were delivered either vehicle, insulin, Gilatide, GLP-1, exendin-4, Insulin A-chain, Insulin B-chain or C-peptide. Glucose levels were measured 20 minutes following intraperitoneal administration. All peptides were given at a dose of 100 ug (Table 2). In this experiment, insulin, the positive control, led to a 44% drop in blood glucose. Gilatide led to a significant drop in glucose level by 14%.
# rats [5] = assay: Elevated plus maze test (anxiogenic effects); assay type: in vivo, rat; set-up: TIME Open Arm / TIME Closed Arm: unit not given here
# Experimental: as §1
# rats [6] = assay: Elevated plus maze test (anxiogenic effects); assay type: in vivo, rat; set-up: TIME Open Arm / TIME Closed Arm: unit not given here; conditions: 10 ng ICV
# [7] = Blood glucose in fasting rats; assay type: in vivo, rat; conditions: for blood glucose: intra-nasal
# [8] = system: rat insulinoma cell line expressing the GLP-1R (RINm5f); assay: ELISA of culture media for insulin, RINm5f cells; assay type: cell-based; conditions: 10 nM peptide, 6 hours
# Experimental: To confirm biologic activity of Gilatide peptides or analogs, a rat insulinoma cell line expressing the GLP-1R (RINm5f) can be cultured and incubated the Gilatide peptide or analogs followed by an ELISA study as described below.
# To confirm biological activity of synthesized Gilatide peptide ([Ser(2)]exendin(1-9)) that was synthesized with a stearic acid residue added to the N-terminus, GLP-1 or [Ser(2)]exendin(1-9) (10 nM) were incubated with the cultured rat insulinoma cell line expressing the GLP-1R (RINm5f) in the presence or absence of the GLP-1R antagonist, exendin(9-39) (10 nM). Rat insulinoma cells (RINm5f) were cultured in 24 well plates and incubated in serum-free medium for 1 hour before treatment. The GLP-1 peptide antagonist exendin (9-39) (10 nM) was added 1 hour prior to GLP-1 (7-36) or [Ser(2)]exendin(1-9) (10 nM). Cells were then incubated for 6 hours in the presence of either GLP-1 or [Ser(2)]exendin(1-9). Media were then removed and assayed for insulin concentrations via ELISA (Pennisula Labs, San Carlos, Calif.).
# [9] = i.c.v., GLP-1 10 ng and 100 ng, [Ser(2)]exendin(1-9) 10 ng
compound,measurement,setting,value
NC(=O)CC[C@@H]1NC(=O)[C@H](Cc2ccccc2)NC(=O)[C@H](Cc2ccc(O)cc2)NC(=O)[C@@H](N)CSSC[C@@H](C(=O)N2CCC[C@H]2C(=O)N[C@@H](CCCN=C(N)N)C(=O)NCC(N)=O)NC(=O)[C@H](CC(N)=O)NC1=O [vasopressin],latency in PA,rats [1]; [9],enhanced latency
same,latency in the PA test,"rats [1]; intranasal, [Ser(2)]exendin(1-9) 3, 10, 30 μg, vasopressin 0.3 μg (FIG. 9A)",increased latency
COC(=O)C1=CCCN(C)C1 [arecoline],latency to locate the submerged platform in the retention trial,"rats [2]; modified MWM, 48 hours after training, [Ser(2)]exendin(1-9) 30 μg intranasal, arecoline 0.3 mg s.c.",significantly reduced the latency
same,acquisition of spatial learning,rats [2]; modified MWM,did not affect acquisition of spatial learning
same,freezing behavior in contextual fear conditioning,rats [3],enhanced freezing behavior
Insulin A chain: inactive insulin fragment,Blood glucose mean ± s.e.m.,[4],90.3 ± 4.7 mg/dL
Insulin B chain: inactive insulin fragment,Blood glucose mean ± s.e.m.,[4],100 ± 4.9 mg/dL
C peptide,Blood glucose mean ± s.e.m.,[4],90.3 ± 8.9 mg/dL
COc1cccc(-c2cc(=O)c3ccccc3o2)c1N [PD98059],effect on enhancement of associative learning by intranasal [Ser(2)]exendin(1-9),rats [1]; PD98059 5 μg i.c.v. before (PRE) training,not when given before (PRE) training
same,effect on enhancement of associative learning by intranasal [Ser(2)]exendin(1-9),rats [1]; PD98059 5 μg i.c.v. immediately after training (POST),completely blocked
C1CCc2nnnn2CC1 [PTZ],ENTRIES Closed Arm,rats [5]; 20 mg/kg IP,1.6 ± 0.4
same,ENTRIES Open Arm,rats [5]; 20 mg/kg IP,0***
same,TIME Closed Arm,rats [5]; 20 mg/kg IP,249.6 ± 13.32
same,TIME Open Arm,rats [5]; 20 mg/kg IP,0***
"HAEGTFTSDVSSVLEGQAAKEFIAWLVKGR [GLP-1, glucagon-like peptide 1]",ENTRIES Closed Arm,rats [6],2.7 ± 0.5
same,ENTRIES Open Arm,rats [6],0.7 ± 0.4
same,TIME Closed Arm,rats [6],198.3 ± 29
same,TIME Open Arm,rats [6],16.7 ± 11
same,blood glucose,[7]; 3 μg,73.8 ± 2.2 P < 0.05 mg/dl
same,blood glucose,[7]; 10 μg,70.6 ± 2.5 P < 0.01 mg/dl
same,blood glucose,[7]; 30 μg,71.2 ± 2.1 P < 0.05 mg/dl
same,fasting blood glucose levels,[7]; intranasal,lowered fasting blood glucose levels
same,ENTRIES Closed Arm,rats [5]; 10 μg IN,4.8 ± 1.0
same,ENTRIES Open Arm,rats [5]; 10 μg IN,1.11 ± 0.3
same,TIME Closed Arm,rats [5]; 10 μg IN,171.8 ± 10^+
same,TIME Open Arm,rats [5]; 10 μg IN,11.6 ± 4
same,ENTRIES Closed Arm,rats [5]; 30 μg IN,2.1 ± 0.4
same,ENTRIES Open Arm,rats [5]; 30 μg IN,1.33 ± 0.4
same,TIME Closed Arm,rats [5]; 30 μg IN,197.2 ± 18
same,TIME Open Arm,rats [5]; 30 μg IN,22.1 ± 10
same,"anxiogenic effect, time spent in closed arms",rats [5]; intranasal,anxiogenic
same,latency in PA,rats [1]; [9],enhanced latency
same,insulin release into culture media,[8],stimulated insulin release
same,latency (not shown),rats [2]; 100 ng i.c.v.,decrease latency
same,distance traveled to locate the platform,"rats [2]; i.c.v., vs control rats",significantly reduced distance traveled
same,swimming speed,"rats [2]; i.c.v., vs vehicle",decrease swimming speed
same,acquisition of spatial learning,rats [2]; modified MWM,did not affect acquisition of spatial learning
same,Blood glucose mean ± s.e.m.,[4],89.5 ± 1.1 mg/dL
CN1CCCC1c1cccnc1 (stereo not drawn) [nicotine],latency in PA,"rats [1]; 0.3 mg/kg subcutaneously, 24 hours",modestly increased latencies
Insulin,drop in blood glucose,[4]; 20 minutes,44%
same,Blood glucose mean ± s.e.m.,[4],50.7 ± 8.2 (P < 0.01) mg/dl
Cc1ncc2n1-c1ccc(Cl)cc1C(c1ccccc1F)=NC2 [Midazolam],ENTRIES Closed Arm,rats [5]; 1.5 mg/kg IP,5.1 ± 0.5
same,ENTRIES Open Arm,rats [5]; 1.5 mg/kg IP,6.6 ± 0.7
same,TIME Closed Arm,rats [5]; 1.5 mg/kg IP,89.2 ± 15
same,TIME Open Arm,rats [5]; 1.5 mg/kg IP,141.3 ± 18
